Source: PMC5725665, “Discovery of a Highly Selective Cell‐Active Inhibitor of the Histone Lysine Demethylases KDM2/7” (Angewandte Chemie (International Ed. in English), 2017)

Tests used:
Assay in all cases: biochemical
Set-up in all cases: AlphaScreen peptide displacement assay, methyl-lysine reader domains
Details in all cases: read-out: IC50 reader domains, AlphaScreen
CHD1 = CHD1 (Homo sapiens, UniProt O14646)
Description: (§1) S106 1.76 1.63 2.01 133 2.78 6.13 6.23 3.55 2.63 1.75 1.31 Table S-3: Summary of indoles tested. IC50 values correspond to KDM2A inhibition by AlphaScreen. 3.2 Selectivity-screening against other epigenetic writer and reader proteins Methyl-Lysine Reader domain assays. Fluorescence polarisation assays for methyl-lysine reader domains were carried out as described. AlphaScreen peptide displacement assays were performed according to manufacturer’s protocol (PerkinElmer, USA) with minor modifications. All reagents were diluted in 25 mM HEPES, 100 mM NaCl, 0.1 % BSA, pH 7.4 and 0.05 % CHAPS and allowed to equilibrate to room temperature prior to addition to plates. An 11-point 1:2.0

KDM4A Tudor domain = biological target: T1, KDM4A Tudor domain (Homo sapiens, UniProt O75164)
T1 construct: Tudor domain
T1 sequence (O75164 1-1064): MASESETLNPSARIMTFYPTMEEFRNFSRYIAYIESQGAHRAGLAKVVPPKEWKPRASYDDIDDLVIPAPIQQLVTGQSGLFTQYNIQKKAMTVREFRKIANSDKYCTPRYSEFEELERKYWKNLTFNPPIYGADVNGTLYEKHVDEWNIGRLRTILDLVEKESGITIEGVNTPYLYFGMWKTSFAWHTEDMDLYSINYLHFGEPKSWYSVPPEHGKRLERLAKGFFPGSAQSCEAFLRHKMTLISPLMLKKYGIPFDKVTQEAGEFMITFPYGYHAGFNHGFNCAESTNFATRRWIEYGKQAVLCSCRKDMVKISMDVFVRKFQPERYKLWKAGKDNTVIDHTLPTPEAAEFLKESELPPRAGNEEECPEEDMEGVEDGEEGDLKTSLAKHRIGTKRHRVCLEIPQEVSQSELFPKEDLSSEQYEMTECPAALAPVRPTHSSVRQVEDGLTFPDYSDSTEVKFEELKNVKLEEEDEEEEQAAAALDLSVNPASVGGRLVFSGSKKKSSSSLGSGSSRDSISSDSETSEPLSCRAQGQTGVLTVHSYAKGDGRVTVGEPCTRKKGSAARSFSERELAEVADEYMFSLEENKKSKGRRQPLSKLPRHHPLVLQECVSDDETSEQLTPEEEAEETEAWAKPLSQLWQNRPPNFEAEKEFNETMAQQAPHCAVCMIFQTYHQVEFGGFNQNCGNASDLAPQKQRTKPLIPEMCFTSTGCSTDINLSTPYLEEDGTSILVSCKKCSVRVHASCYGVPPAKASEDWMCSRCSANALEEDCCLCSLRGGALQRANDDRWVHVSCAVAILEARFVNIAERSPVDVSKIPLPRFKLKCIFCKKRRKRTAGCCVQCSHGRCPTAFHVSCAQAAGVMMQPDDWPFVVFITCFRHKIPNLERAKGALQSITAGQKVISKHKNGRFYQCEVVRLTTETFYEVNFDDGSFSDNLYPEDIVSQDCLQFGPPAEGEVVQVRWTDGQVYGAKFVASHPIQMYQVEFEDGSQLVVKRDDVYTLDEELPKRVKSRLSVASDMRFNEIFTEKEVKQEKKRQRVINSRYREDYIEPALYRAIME
Description: as §1

SGF29 = biological target: T2, SGF29 (Homo sapiens, UniProt Q96ES7)
T2 sequence (Q96ES7 1-293): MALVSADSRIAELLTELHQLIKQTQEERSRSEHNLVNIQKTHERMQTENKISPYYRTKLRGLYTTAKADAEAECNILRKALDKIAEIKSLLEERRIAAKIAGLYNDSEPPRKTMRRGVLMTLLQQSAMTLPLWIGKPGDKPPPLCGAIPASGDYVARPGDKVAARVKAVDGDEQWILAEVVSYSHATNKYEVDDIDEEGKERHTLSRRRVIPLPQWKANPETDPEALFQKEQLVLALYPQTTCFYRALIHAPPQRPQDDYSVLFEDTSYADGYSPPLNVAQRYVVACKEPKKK
Description: as §1

Measured: IC50

Chain of CHD1 (O14646 whole entry, the tested form may be a part): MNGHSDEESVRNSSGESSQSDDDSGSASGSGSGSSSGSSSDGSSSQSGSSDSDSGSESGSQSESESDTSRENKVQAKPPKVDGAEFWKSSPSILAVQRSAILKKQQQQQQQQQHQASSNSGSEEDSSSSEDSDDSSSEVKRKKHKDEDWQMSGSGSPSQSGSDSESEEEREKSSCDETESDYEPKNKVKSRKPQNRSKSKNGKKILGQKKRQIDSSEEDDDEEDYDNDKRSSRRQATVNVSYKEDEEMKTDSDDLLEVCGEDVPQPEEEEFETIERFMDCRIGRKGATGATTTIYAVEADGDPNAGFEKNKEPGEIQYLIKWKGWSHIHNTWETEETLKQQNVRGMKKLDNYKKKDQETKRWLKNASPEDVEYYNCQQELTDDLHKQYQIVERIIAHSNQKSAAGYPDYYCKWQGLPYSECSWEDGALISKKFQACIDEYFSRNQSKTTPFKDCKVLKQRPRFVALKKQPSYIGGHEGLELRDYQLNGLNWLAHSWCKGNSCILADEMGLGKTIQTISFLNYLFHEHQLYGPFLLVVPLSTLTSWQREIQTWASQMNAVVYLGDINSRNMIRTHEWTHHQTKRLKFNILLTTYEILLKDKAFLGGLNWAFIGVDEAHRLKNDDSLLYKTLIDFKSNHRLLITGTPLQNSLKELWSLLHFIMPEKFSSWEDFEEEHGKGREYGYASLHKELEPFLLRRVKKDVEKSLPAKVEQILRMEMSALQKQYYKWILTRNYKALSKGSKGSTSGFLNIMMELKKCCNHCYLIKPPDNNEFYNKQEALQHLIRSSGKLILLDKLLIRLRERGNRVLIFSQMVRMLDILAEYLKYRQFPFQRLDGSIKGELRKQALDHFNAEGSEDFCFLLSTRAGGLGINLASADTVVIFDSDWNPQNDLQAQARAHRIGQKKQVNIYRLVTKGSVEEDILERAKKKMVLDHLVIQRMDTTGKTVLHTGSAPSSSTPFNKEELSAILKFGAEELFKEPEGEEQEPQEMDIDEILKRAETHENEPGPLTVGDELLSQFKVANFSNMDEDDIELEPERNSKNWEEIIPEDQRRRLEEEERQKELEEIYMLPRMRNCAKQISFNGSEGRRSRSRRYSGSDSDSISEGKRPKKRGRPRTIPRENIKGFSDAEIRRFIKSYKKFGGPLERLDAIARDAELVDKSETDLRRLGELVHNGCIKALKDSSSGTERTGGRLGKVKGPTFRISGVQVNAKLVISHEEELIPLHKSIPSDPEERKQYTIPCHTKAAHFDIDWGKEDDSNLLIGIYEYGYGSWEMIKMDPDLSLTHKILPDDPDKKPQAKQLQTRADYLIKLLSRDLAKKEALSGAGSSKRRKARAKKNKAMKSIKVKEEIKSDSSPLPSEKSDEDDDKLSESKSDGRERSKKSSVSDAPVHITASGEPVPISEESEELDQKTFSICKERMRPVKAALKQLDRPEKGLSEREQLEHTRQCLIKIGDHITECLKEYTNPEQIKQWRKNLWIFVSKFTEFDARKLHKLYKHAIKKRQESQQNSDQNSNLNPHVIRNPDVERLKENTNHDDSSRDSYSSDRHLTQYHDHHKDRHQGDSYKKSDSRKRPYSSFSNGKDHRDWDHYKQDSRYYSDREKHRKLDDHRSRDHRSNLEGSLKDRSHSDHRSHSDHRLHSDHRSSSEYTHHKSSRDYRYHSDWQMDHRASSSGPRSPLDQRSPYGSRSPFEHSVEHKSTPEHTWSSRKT

CC(=O)N1c2ccccc2[C@@](C#N)(c2ccccc2)[C@@H]1c1cncc(CCCCCCCN2CCCC2)c1 [(S,S)-6]
> 20 µM: all assays above
